Experimental data from ChEMBL document CHEMBL2157998, “Synthesis and biological evaluation of new phenothiazine derivatives bearing a pyrazole unit as protein farnesyltransferase inhibitors” (Bioorg Med Chem Lett, 2012).
Activity calls are given as the source filed them. The calls are words filed in the database; no cut-off is given here.

Legend:
[1] = test system: EKVX; experiment: Growth inhibition of human EKVX cells at 10 uM after 48 hrs by single dose SRB assay; format: functional; settings: for inhibition of growth at 10 µM: read-out: GI
[2] = test system: LOX IMVI; experiment: Growth inhibition of human LOXIMVI cells at 10 uM after 48 hrs by single dose SRB assay; format: functional
[3] = test system: SN12C; experiment: Growth inhibition of human SN12C cells at 10 uM after 48 hrs by single dose SRB assay; format: functional; settings: for inhibition of growth at 10 µM: read-out: GI
[4] = test system: HL-60(TB); experiment: Growth inhibition of human HL-60(TB) cells at 10 uM after 48 hrs by single dose SRB assay; format: functional; settings: for inhibition of growth at 10 µM: HL-60, 48 h, read-out: GI
[5] = molecular target: T1, Protein farnesyltransferase (Homo sapiens, UniProt P49354+P49356); experiment: Inhibition of recombinant human FTase using dansyl-GCVLS as substrate at 100 uM after 15 mins by fluorimetric analysis; format: protein-complex assay
[6] = test system: NCI-H522; experiment: Growth inhibition of human NCI-H522 cells at 10 uM after 48 hrs by single dose SRB assay; format: functional; settings: for inhibition of growth at 10 µM: NCI-H522, 48 h, read-out: GI
[7] = test system: NCI-H226; experiment: Growth inhibition of human NCI-H226 cells at 10 uM after 48 hrs by single dose SRB assay; format: functional; settings: for inhibition of growth at 10 µM: NCI-H226, 48 h, read-out: GI
[8] = test system: OVCAR-3; experiment: Growth inhibition of human OVCAR3 cells at 10 uM after 48 hrs by single dose SRB assay; format: functional
[9] = test system: SNB-19; experiment: Growth inhibition of human SNB19 cells at 10 uM after 48 hrs by single dose SRB assay; format: functional
[10] = test system: PC-3; experiment: Growth inhibition of human PC3 cells at 10 uM after 48 hrs by single dose SRB assay; format: functional; settings: PC-3, 48 h, read-out: GI
[11] = test system: ACHN; experiment: Growth inhibition of human ACHN cells at 10 uM after 48 hrs by single dose SRB assay; format: functional
[12] = test system: MDA-MB-231; experiment: Growth inhibition of human MDA-MB-231 cells at 10 uM after 48 hrs by single dose SRB assay; format: functional
[13] = test system: SW-620; experiment: Growth inhibition of human SW620 cells at 10 uM after 48 hrs by single dose SRB assay; format: functional
[14] = test system: SF-295; experiment: Growth inhibition of human SF295 cells at 10 uM after 48 hrs by single dose SRB assay; format: functional; settings: for inhibition of growth at 10 µM: SF-295, 48 h, read-out: GI
[15] = test system: CCRF-CEM; experiment: Growth inhibition of human CCRF-CEM cells at 10 uM after 48 hrs by single dose SRB assay; format: functional; settings: for inhibition of growth at 10 µM: read-out: GI
[16] = molecular target: T1, Protein farnesyltransferase; experiment: Inhibition of recombinant human FTase using dansyl-GCVLS as substrate after 15 mins by fluorimetric analysis; format: protein-complex assay
[17] = test system: OVCAR-8; experiment: Growth inhibition of human OVCAR8 cells at 10 uM after 48 hrs by single dose SRB assay; format: functional; settings: for inhibition of growth at 10 µM: OVCAR-8, 48 h, read-out: GI
[18] = test system: MDA-MB-468; experiment: Growth inhibition of human MDA-MB-468 cells at 10 uM after 48 hrs by single dose SRB assay; format: functional; settings: for inhibition of growth at 10 µM: MDA-MB-468, 48 h, read-out: GI
[19] = test system: HCT166; experiment: (§1) Growth inhibition of human […] cells at 10 uM after 48 hrs by single dose SRB assay; format: functional
[20] = test system: UO-31; experiment: Growth inhibition of human UO31 cells at 10 uM after 48 hrs by single dose SRB assay; format: functional; settings: for inhibition of growth at 10 µM: UO-31, 48 h, read-out: GI
[21] = test system: UACC-62; experiment: Growth inhibition of human UACC62 cells at 10 uM after 48 hrs by single dose SRB assay; format: functional; settings: for inhibition of growth at 10 µM: UACC-62, 48 h, read-out: GI
[22] = test system: CAKI-1; experiment: Growth inhibition of human Caki1 cells at 10 uM after 48 hrs by single dose SRB assay; format: functional; settings: for inhibition of growth at 10 µM: CAKI-1, 48 h, read-out: GI
[23] = test system: HCT-15; experiment: Growth inhibition of human HCT15 cells at 10 uM after 48 hrs by single dose SRB assay; format: functional; settings: for inhibition of growth at 10 µM: HCT-15, 48 h, read-out: GI
[24] = test system: HT-29; experiment: Growth inhibition of human HT-29 cells at 10 uM after 48 hrs by single dose SRB assay; format: functional; settings: for inhibition of growth at 10 µM: HT-29, 48 h, read-out: GI
[25] = test system: RPMI-8226; experiment: Growth inhibition of human RPMI8226 cells at 10 uM after 48 hrs by single dose SRB assay; format: functional
[26] = test system: SK-MEL-5; experiment: Growth inhibition of human SK-MEL-5 cells at 10 uM after 48 hrs by single dose SRB assay; format: functional; settings: for inhibition of growth at 10 µM: SK-MEL-5, 48 h, read-out: GI
[27] = test system: A498; experiment: Growth inhibition of human A498 cells at 10 uM after 48 hrs by single dose SRB assay; format: functional; settings: A498, 48 h, read-out: GI
[28] = test system: HOP-92; experiment: Growth inhibition of human HOP92 cells at 10 uM after 48 hrs by single dose SRB assay; format: functional; settings: for inhibition of growth at 10 µM: HOP-92, 48 h, read-out: GI
[29] = test system: NCI/ADR-RES; experiment: Growth inhibition of human NCI/ADR-RES cells at 10 uM after 48 hrs by single dose SRB assay; format: functional; settings: for inhibition of growth at 10 µM: read-out: GI
[30] = test system: U-251; experiment: Growth inhibition of human U251 cells at 10 uM after 48 hrs by single dose SRB assay; format: functional; settings: for inhibition of growth at 10 µM: U-251, 48 h, read-out: GI
[31] = as §1; format: functional; settings: read-out: GI
[32] = test system: MOLT-4; experiment: Growth inhibition of human MOLT4 cells at 10 uM after 48 hrs by single dose SRB assay; format: functional; settings: for inhibition of growth at 10 µM: MOLT-4, 48 h, read-out: GI

Compound | growth inhibition (GI) [2] | inhibition of growth at 10 µM [4] [%] | inhibition [5] [%] | growth inhibition (GI) [8] | growth inhibition (GI) [9] | inhibition of growth at 10 µM [10] [%] | growth inhibition (GI) [11] | growth inhibition (GI) [12] | growth inhibition (GI) [13] | inhibition of growth at 10 µM [18] [%] | inhibition of growth at 10 µM [20] [%] | growth inhibition (GI) [24] | growth inhibition (GI) [25] | growth inhibition (GI) [26] | inhibition of growth at 10 µM [27] [%] | inhibition of growth at 10 µM [1] [%] | inhibition of growth at 10 µM [6] [%] | inhibition of growth at 10 µM [7] [%] | inhibition of growth at 10 µM [21] [%] | inhibition of growth at 10 µM [22] [%] | other results
N#Cc1cnn(CC(=O)N2c3ccccc3Sc3ccccc32)c1N | inactive | 46.2 | 94.9 | inactive | inactive | 9.9 | inactive | inactive | inactive | 11.7 | 6.4 | inactive | inactive | inactive | 14 | – | – | – | – | – | growth inhibition (GI) [1]: inactive; growth inhibition (GI) [3]: inactive; growth inhibition (GI) [6]: inactive; growth inhibition (GI) [7]: inactive; inhibition of growth at 10 µM [14]: 13.1%; growth inhibition (GI) [15]: inactive; IC50 [16]: 17.2 µM; inhibition of growth at 10 µM [17]: 5.5%; growth inhibition (GI) [19]: inactive; growth inhibition (GI) [21]: inactive; growth inhibition (GI) [22]: inactive; growth inhibition (GI) [23]: inactive; inhibition of growth at 10 µM [28]: 12.5%; growth inhibition (GI) [29]: inactive; growth inhibition (GI) [30]: inactive
Cc1c2c(nn1CC(=O)N1c3ccccc3Sc3ccccc31)-c1ccccc1C2=O | – | – | 67.7 | – | – | 31 | – | – | – | 37.6 | 29.5 | – | inactive | – | 19.4 | 39.9 | 9.6 | 25.3 | 31.2 | 38.3 | inhibition of growth at 10 µM ([2]; read-out: GI): 54.8%; inhibition of growth at 10 µM [3]: 34.8%; growth inhibition (GI) [4]: inactive; inhibition of growth at 10 µM ([8]; OVCAR-3, 48 h, read-out: GI): 29.7%; inhibition of growth at 10 µM ([9]; SNB-19, 48 h, read-out: GI): 35.7%; inhibition of growth at 10 µM ([11]; read-out: GI): 29.7%; inhibition of growth at 10 µM ([12]; MDA-MB-231, 48 h, read-out: GI): 27.8%; inhibition of growth at 10 µM ([13]; SW-620, 48 h, read-out: GI): 23.8%; inhibition of growth at 10 µM [14]: 35.8%; inhibition of growth at 10 µM [15]: 12.1%; IC50 [16]: 3.35 µM; inhibition of growth at 10 µM [17]: 28.2%; inhibition of growth at 10 µM [31]: 55.7%; inhibition of growth at 10 µM [23]: 23%; inhibition of growth at 10 µM [32]: 25.4%; inhibition of growth at 10 µM [24]: 17.7%; inhibition of growth at 10 µM [26]: 51.4%; growth inhibition (GI) [28]: inactive; inhibition of growth at 10 µM [29]: 33.5%; inhibition of growth at 10 µM [30]: 24.8%
Cc1cc(-c2ccccc2)n(C(=O)CN2c3ccccc3Sc3ccccc32)n1 | inactive | 31.5 | 0 | inactive | inactive | 13 | inactive | inactive | inactive | – | 9 | inactive | inactive | inactive | 17.3 | 5 | – | 7.2 | – | 16.2 | inhibition of growth at 10 µM [3]: 7.2%; growth inhibition (GI) [6]: inactive; growth inhibition (GI) [14]: inactive; growth inhibition (GI) [15]: inactive; inhibition of growth at 10 µM [17]: 6.3%; growth inhibition (GI) [18]: inactive; growth inhibition (GI) [19]: inactive; growth inhibition (GI) [21]: inactive; growth inhibition (GI) [23]: inactive; inhibition of growth at 10 µM [32]: 9.6%; inhibition of growth at 10 µM [28]: 14%; growth inhibition (GI) [29]: inactive; inhibition of growth at 10 µM [30]: 9.2%
CCOC(=O)c1cnn(CC(=O)N2c3ccccc3Sc3ccccc32)c1N | inactive | 83.2 | 24.8 | inactive | inactive | 21.3 | inactive | inactive | inactive | 15.3 | 13.3 | – | inactive | – | 11.8 | 5.3 | 31.9 | 8.1 | 6.3 | 16 | growth inhibition (GI) [3]: inactive; inhibition of growth at 10 µM [14]: 6.7%; growth inhibition (GI) [15]: inactive; growth inhibition (GI) [17]: inactive; growth inhibition (GI) [19]: inactive; inhibition of growth at 10 µM [23]: 25.4%; inhibition of growth at 10 µM [32]: 7.6%; inhibition of growth at 10 µM [24]: 13.2%; inhibition of growth at 10 µM [26]: 6.9%; growth inhibition (GI) [28]: inactive; growth inhibition (GI) [29]: inactive; growth inhibition (GI) [30]: inactive
Cc1c2c(nn1C(=O)CCN1c3ccccc3Sc3ccccc31)CCCC2 | inactive | 19.6 | 0 | inactive | inactive | 13 | inactive | inactive | inactive | 11.2 | – | inactive | inactive | inactive | – | 8.3 | 9.1 | 12.8 | 7.1 | – | growth inhibition (GI) [3]: inactive; growth inhibition (GI) [14]: inactive; inhibition of growth at 10 µM [15]: 12.8%; growth inhibition (GI) [17]: inactive; inhibition of growth at 10 µM [31]: 12.4%; growth inhibition (GI) [20]: inactive; growth inhibition (GI) [22]: inactive; growth inhibition (GI) [23]: inactive; growth inhibition (GI) [32]: inactive; inhibition of growth at 10 µM [28]: 31.6%; inhibition of growth at 10 µM [29]: 8.2%; growth inhibition (GI) [30]: inactive
Cc1c2c(nn1CC(=O)N1c3ccccc3Sc3ccccc31)CCCC2 | inactive | – | 0 | inactive | inactive | – | inactive | inactive | inactive | – | 10 | inactive | – | inactive | – | – | 15.2 | – | 13.2 | 8.1 | growth inhibition (GI) [1]: inactive; inhibition of growth at 10 µM [3]: 5.6%; growth inhibition (GI) [4]: inactive; growth inhibition (GI) [7]: inactive; growth inhibition (GI) [14]: inactive; inhibition of growth at 10 µM [15]: 6.5%; growth inhibition (GI) [17]: inactive; growth inhibition (GI) [18]: inactive; inhibition of growth at 10 µM [31]: 8.4%; inhibition of growth at 10 µM [23]: 8%; inhibition of growth at 10 µM [32]: 20.1%; inhibition of growth at 10 µM ([25]; RPMI-8226, 48 h, read-out: GI): 16.2%; inhibition of growth at 10 µM [29]: 6.2%; inhibition of growth at 10 µM [30]: 10.2%
C/C(=N\NC(=O)CCN1c2ccccc2Sc2ccccc21)C1=C(O)c2ccccc2C1=O | – | – | 95.5 | – | – | – | – | – | – | – | – | – | – | – | – | – | – | – | – | – | IC50 [16]: 3.73 µM
